Here are results for 3 compounds from article PMC6751730 (ACS Omega, 2019).

The subject of one assay is lysosomes in A549 cells. Conditions: cited from earlier work.
Another assay has as its system A549 cancer cells. The assay can be described thus: MTT antiproliferative assay, A549. It counts as cell-based, human. The note with it: 24 h drug exposure. In general terms: Tetrazolium dyes change colour on reduction, which living cells bring about.
Another assay relates to BEAS-2B normal cells. Kind of assay: MTT antiproliferative assay, normal cells BEAS-2B. It counts as cell-based. Conditions: 24 h drug exposure.
The subject of another assay is HepG2 cancer cells. The assay can be described thus: MTT antiproliferative assay, HepG2. Conditions: 24 h drug exposure. It counts as cell-based.
For a further assay, the system named is HeLa cancer cells. The assay can be described thus: MTT antiproliferative assay, HeLa. It counts as cell-based, human. Conditions: 24 h drug exposure.

As for `CCNc1cc2c(cc1C)C1(c3cc(C)c(NCC)cc3O2)c2ccccc2C(=O)N1N` [rhodamine 6G hydrazide], the “Colocalization coefficient with lysosome” value in the assay on lysosomes in A549 cells was 0.58.
With `CCN(CC)c1ccc2c(c1)Oc1cc(N(CC)CC)ccc1C21c2ccccc2C(=O)N1N` [rhodamine B hydrazide], in the assay on lysosomes in A549 cells, the “Colocalization coefficient with lysosome” value is recorded as 0.62.
One may read the IC50 as the point on the concentration scale where inhibition reaches its midpoint. Turning to `N.N.[Cl][Pt][Cl]` [cisplatin], the 50% inhibitory concentration (IC50) with A549 cancer cells came out at 21.3 ± 1.7 µM; in the assay on BEAS-2B normal cells, 42 ± 2.3 µM; with HepG2 cancer cells it was 22.7 ± 1.1 µM; with HeLa cancer cells it was 7.5 ± 0.2 µM.
